# Test results: US20120264685A1 (priority 2009, published 2012)
# Where a SMILES comes first, the peptide text is derived from it. [ ]: non-standard residue; d: D form. ξ: configuration not given here. ξαMeBip(2'-Et,4'-OMe) = CCc1cc(OC)ccc1-c1ccc(CC(C)(N)C(=O)O)cc1; ξBip(2'-Et-4'-OMe) = CCc1cc(OC)ccc1-c1ccc(CC(N)C(=O)O)cc1; ξαMePhe(2,6-F2) = CC(N)(Cc1c(F)cccc1F)C(=O)O; ξαMe(hhPhe) = CC(N)(CCCc1ccccc1)C(=O)O; ξαMePhe(2-F) = CC(N)(Cc1ccccc1F)C(=O)O; ξhhPhe = NC(CCCc1ccccc1)C(=O)O; ξαMeD = CC(N)(CC(=O)O)C(=O)O; ξαMeS = CC(N)(CO)C(=O)O; Aib = CC(C)(N)C(=O)O
# What was measured:
# [1] = Stability in simulated intestinal fluid; format: in vitro ADME; conditions: 2 μM, 37° C.; for % degradation in 24 h when incubated with simulated intestinal fluid: pH 7.5, 24 h; for half-life: simulated gi fluid, read-out: half-life (t1/2) in simulated intestinal fluid; for half-life / half-life (t1/2) in simulated intestinal fluid: pH 7.5
# Protocol: (§1) Reactions were terminated by the addition of TFA/H2O ([…], 10% (v/v)). […] The column was equilibrated with TFA/H20, at a flow rate of 1 mL/min. […] The absorbance was monitored at 206 nm using UV detector and peaks were collected manually prior to ESI-MS analysis.
# [2] = Stability in simulated gastric fluid; format: in vitro ADME; conditions: 2 μM, 37° C.; for % degradation in 24 h when incubated with simulated gastric fluid: pH 1.5, 24 h; for half-life: simulated gi fluid, read-out: half-life (t1/2) in simulated gastric fluid; for half-life / half-life (t1/2) in simulated gastric fluid: pH 1.5
# Protocol: as §1
# [3] = Stability in liver microsomes; format: in vitro ADME, human; conditions: 2 μM, 37° C.; for half-life: human, microsomes, read-out: half-life (t1/2) in liver microsomes
# Protocol: as §1
# DPP IV enzyme = DPP IV enzyme (Homo sapiens, UniProt P27487); experiment: Stability against DPP IV enzyme; format: in vitro ADME; conditions: 2 μM, 37° C.; for half-life: read-out: half-life (t1/2) with DPP-IV enzyme
# Protocol: (§2) Different peptidomimetics (final concentration 2 μM) were incubated with either DPP IV (1:25 mU) or pooled human plasma (7.5 μL) or simulated gastric fluid (pH 1.5; composition HCl, NaCl and Pepsin) or simulated intestinal fluid (pH 7.5) or human liver microsomes, for 0, 2, 4, 6, 12 and 24 h (37° C.; 50 mM triethanolamine-HCl buffer; pH 7.8). […] Reactions were terminated by the addition of TFA/H2O ([…], 10% (v/v)). The reaction products were then applied to a Vydac C18 analytical column (4.6×250-mm) and the major degradation fragment separated from intact peptidomimetic. The column was equilibrated with TFA/H20, at a flow rate of 1 mL/min. Using 0.1% (v/v) TFA in 70% acetonitrile/H2O, the concentration of acetonitrile in the eluting solvent was raised from 0% to 28% over 10 min and from 28% to 42% over 30 min. The absorbance was monitored at 206 nm using UV detector and peaks were collected manually prior to ESI-MS analysis. Area under the curve was measured for test peptidomimetics and their metabolites and percentage degradation were calculated at each time point over a period of 24 h.
# [4] = Stability in human plasma; format: in vitro ADME; conditions: 2 μM, 37° C.; for half-life: human, plasma, read-out: half-life (t1/2) in human plasma
# Protocol: as §2
# [5] = system: RIN5F (Rat Insulinoma) cells; experiment: In vitro glucose-dependent insulin secretion (RIN5F cell assay); format: cell-based; conditions: 16.7-mM glucose load, n = 3, mean ± S.D.
# Procedure, shortened: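 Rat RIN5F cells were preincubated 40 min in Krebs-Ringer buffer with 1.1 mM glucose and 0.5% BSA, pH 7.4, then exposed to test peptidomimetics for 30 min at 37 °C with 16.7 mM or 0 mM glucose. Supernatant insulin was measured by rat insulin ELISA and normalised to total protein (BCA), as pg/μg.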
# Chain of DPP IV enzyme (P27487 whole entry, species assumed, the tested form may be a part): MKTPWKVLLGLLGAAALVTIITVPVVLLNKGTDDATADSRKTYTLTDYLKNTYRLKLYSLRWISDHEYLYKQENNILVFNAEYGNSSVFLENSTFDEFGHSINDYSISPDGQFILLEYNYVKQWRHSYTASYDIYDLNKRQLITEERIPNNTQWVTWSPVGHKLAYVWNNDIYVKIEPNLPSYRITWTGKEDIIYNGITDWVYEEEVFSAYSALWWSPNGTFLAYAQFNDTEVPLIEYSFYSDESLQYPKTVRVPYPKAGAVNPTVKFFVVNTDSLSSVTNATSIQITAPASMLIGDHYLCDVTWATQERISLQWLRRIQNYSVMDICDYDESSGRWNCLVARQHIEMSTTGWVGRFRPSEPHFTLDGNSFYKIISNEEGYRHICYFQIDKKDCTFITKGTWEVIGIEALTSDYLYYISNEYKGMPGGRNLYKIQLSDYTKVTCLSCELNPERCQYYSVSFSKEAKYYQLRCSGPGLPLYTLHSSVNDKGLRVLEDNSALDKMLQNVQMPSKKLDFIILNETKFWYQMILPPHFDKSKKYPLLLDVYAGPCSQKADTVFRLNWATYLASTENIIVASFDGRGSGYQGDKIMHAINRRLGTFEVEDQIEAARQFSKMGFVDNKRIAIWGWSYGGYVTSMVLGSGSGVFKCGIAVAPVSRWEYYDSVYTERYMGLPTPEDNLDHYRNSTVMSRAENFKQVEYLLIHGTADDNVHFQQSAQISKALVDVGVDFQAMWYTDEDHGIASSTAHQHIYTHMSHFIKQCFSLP
Structure (SMILES),% degradation in 24 h when incubated with simulated intestinal fluid [1],half-life [1],% degradation in 24 h when incubated with simulated gastric fluid [2],half-life [2],half-life (t1/2) in liver microsomes [3],% degradation in 24 h when incubated with liver microsomes [3],% degradation in 24 h when incubated with DPP-IV enzyme (DPP IV enzyme),half-life (DPP IV enzyme),% degradation in 24 h when incubated with human plasma [4],half-life [4],half-life [3],half-life (t1/2) in human plasma [4],half-life (t1/2) in simulated intestinal fluid [1],half-life (t1/2) in simulated gastric fluid [2],Insulin secretion ([5]; 0.1 nM test compd.),Insulin secretion ([5]; 1 nM test compd.),Insulin secretion ([5]; 10 nM test compd.)
"CCc1cc(OC)ccc1-c1ccc(CC(C)(NC(=O)[C@H](CC(=O)O)NC(=O)C(C)(CO)NC(=O)[C@@H](NC(=O)[C@H](Cc2ccccc2)NC(=O)[C@@H](NC(=O)CNC(=O)[C@H](CCC(=O)O)NC(=O)[C@H](C)NC(=O)[C@H](Cc2c[nH]cn2)NC(=O)[C@@H](N)C(C)C)[C@@H](C)O)[C@@H](C)O)C(=O)NC(CCCc2ccccc2)C(N)=O)cc1 (stereo partly drawn) [compound 38] (H-VHAEGTFT[ξαMeS]D[ξαMeBip(2'-Et,4'-OMe)][ξhhPhe]-NH2)",00%,> 24 h,00%,> 24 h,(5) h,31%,00%,> 24 h,00%,> 24 h,,,,,13.1 ± 0.11 pg/µg/h,14.9 ± 0.17 pg/µg/h,28.8 ± 0.44 pg/µg/h
"CCc1cc(OC)ccc1-c1ccc(CC(C)(NC(=O)C(C)(CC(=O)O)NC(=O)[C@H](CO)NC(=O)[C@@H](NC(=O)[C@H](Cc2ccccc2)NC(=O)[C@@H](NC(=O)CNC(=O)[C@H](CCC(=O)O)NC(=O)[C@H](C)NC(=O)[C@H](Cc2c[nH]cn2)NC(=O)[C@@H](N)C(C)C)[C@@H](C)O)[C@@H](C)O)C(=O)NC(CCCc2ccccc2)C(N)=O)cc1 (stereo partly drawn) [compound 62] (H-VHAEGTFTS[ξαMeD][ξαMeBip(2'-Et,4'-OMe)][ξhhPhe]-NH2)",00%,> 24 h,00%,> 24 h,(5) h,35%,00%,> 24 h,00%,> 24 h,,,,,16.6 ± 0.41 pg/µg/h,22.9 ± 0.32 pg/µg/h,36.7 ± 0.11 pg/µg/h
CCc1cc(OC)ccc1-c1ccc(CC(NC(=O)[C@H](CC(=O)O)NC(=O)[C@H](CO)NC(=O)[C@@H](NC(=O)[C@H](Cc2ccccc2)NC(=O)[C@@H](NC(=O)CNC(=O)[C@H](CCC(N)=O)NC(=O)[C@H](CO)NC(=O)[C@H](Cc2c[nH]cn2)NC(=O)[C@@H](N)C(C)C)[C@@H](C)O)[C@@H](C)O)C(=O)NC(C)(CCCc2ccccc2)C(N)=O)cc1 (stereo partly drawn) [compound 81] (H-VHSQGTFTSD[ξBip(2'-Et-4'-OMe)][ξαMe(hhPhe)]-NH2),40%,,14%,,,78%,70%,9 h,71%,8 h,1 h,,(6) h,(8) h,16.8 ± 0.20 pg/µg/h,22.7 ± 0.29 pg/µg/h,36.6 ± 0.31 pg/µg/h

# Continued, in another order:
% degradation in 24 h when incubated with simulated intestinal fluid [1],half-life [1],% degradation in 24 h when incubated with simulated gastric fluid [2],half-life [2],half-life (t1/2) in liver microsomes [3],% degradation in 24 h when incubated with liver microsomes [3],% degradation in 24 h when incubated with DPP-IV enzyme (DPP IV enzyme),half-life (DPP IV enzyme),% degradation in 24 h when incubated with human plasma [4],half-life [4],half-life [3],half-life (t1/2) in human plasma [4],half-life (t1/2) in simulated intestinal fluid [1],half-life (t1/2) in simulated gastric fluid [2],Structure (SMILES),Insulin secretion ([5]; 0.1 nM test compd.),Insulin secretion ([5]; 1 nM test compd.),Insulin secretion ([5]; 10 nM test compd.)
100%,0.5 h,100%,0.5 h,,100%,75%,,77%,,0.5 h,(9) h,,,"CCc1cc(OC)ccc1-c1ccc(CC(C)(NC(=O)[C@H](CC(=O)O)NC(=O)C(C)(CO)NC(=O)[C@@H](NC(=O)C(C)(Cc2c(F)cccc2F)NC(=O)[C@@H](NC(=O)CNC(=O)[C@H](CCC(N)=O)NC(=O)[C@H](C)NC(=O)[C@H](Cc2c[nH]cn2)NC(=O)[C@@H](N)C(C)C)[C@@H](C)O)[C@@H](C)O)C(=O)NC(CCCc2ccccc2)C(N)=O)cc1 (stereo partly drawn) [compound 50] (H-VHAQGT[ξαMePhe(2,6-F2)]T[ξαMeS]D[ξαMeBip(2'-Et,4'-OMe)][ξhhPhe]-NH2)",12.9 ± 0.14 pg/µg/h,15.8 ± 0.13 pg/µg/h,29.9 ± 0.15 pg/µg/h
43%,,11%,7 h,,77%,71%,8 h,69%,8 h,2 h,,(6) h,,"CCc1cc(OC)ccc1-c1ccc(CC(C)(NC(=O)C(C)(CC(=O)O)NC(=O)[C@H](CO)NC(=O)[C@@H](NC(=O)[C@H](Cc2ccccc2)NC(=O)[C@@H](NC(=O)CNC(=O)[C@H](CCC(N)=O)NC(=O)[C@H](C)NC(=O)[C@H](Cc2c[nH]cn2)NC(=O)[C@@H](N)C(C)C)[C@@H](C)O)[C@@H](C)O)C(=O)NC(CCCc2ccccc2)C(N)=O)cc1 (stereo partly drawn) [compound 58] (H-VHAQGTFTS[ξαMeD][ξαMeBip(2'-Et,4'-OMe)][ξhhPhe]-NH2)",16.1 ± 0.22 pg/µg/h,22.1 ± 0.26 pg/µg/h,36.0 ± 0.36 pg/µg/h
43%,,14%,,,80%,76%,9 h,78%,8 h,1 h,,(6) h,(8) h,"CCc1cc(OC)ccc1-c1ccc(CC(C)(NC(=O)C(C)(CC(=O)O)NC(=O)[C@H](CO)NC(=O)[C@@H](NC(=O)C(C)(Cc2ccccc2F)NC(=O)[C@@H](NC(=O)CNC(=O)[C@H](CCC(=O)O)NC(=O)[C@H](CO)NC(=O)[C@H](Cc2c[nH]cn2)NC(=O)[C@@H](N)C(C)C)[C@@H](C)O)[C@@H](C)O)C(=O)NC(CCCc2ccccc2)C(N)=O)cc1 (stereo partly drawn) [compound 69] (H-VHSEGT[ξαMePhe(2-F)]TS[ξαMeD][ξαMeBip(2'-Et,4'-OMe)][ξhhPhe]-NH2)",16.2 ± 0.13 pg/µg/h,22.4 ± 0.19 pg/µg/h,36.2 ± 0.09 pg/µg/h
46%,,12%,,,83%,74%,9 h,75%,8 h,1 h,,(6) h,(8) h,"CCc1cc(OC)ccc1-c1ccc(CC(C)(NC(=O)C(C)(CC(=O)O)NC(=O)[C@H](CO)NC(=O)[C@@H](NC(=O)C(C)(Cc2c(F)cccc2F)NC(=O)[C@@H](NC(=O)CNC(=O)[C@H](CCC(N)=O)NC(=O)C(C)(C)NC(=O)[C@H](Cc2c[nH]cn2)NC(=O)[C@@H](N)C(C)C)[C@@H](C)O)[C@@H](C)O)C(=O)NC(CCCc2ccccc2)C(N)=O)cc1 (stereo partly drawn) [compound 75] (H-VH[Aib]QGT[ξαMePhe(2,6-F2)]TS[ξαMeD][ξαMeBip(2'-Et,4'-OMe)][ξhhPhe]-NH2)",16.4 ± 0.12 pg/µg/h,22.7 ± 0.17 pg/µg/h,36.6 ± 0.05 pg/µg/h
